Among the data in article PMC5113031, “Variant Exported Blood-Stage Proteins Encoded by Plasmodium Multigene Families Are Expressed in Liver Stages Where They Are Exported into the Parasitophorous Vacuole” (PLoS Pathogens, 2016) are PC transfer activity values, retold here.

The target in this assay is T1, P. falciparum Fam-A (PF3D7_1463500) (Plasmodium falciparum, UniProt Q8IKK1).
T1 construct: region encoding START domain, codon-optimised, cloned in pMALc2x, N-terminal His6, E. coli BL21(DE3), Ni and SEC, monomeric
T1 sequence (Q8IKK1 entry or part of it): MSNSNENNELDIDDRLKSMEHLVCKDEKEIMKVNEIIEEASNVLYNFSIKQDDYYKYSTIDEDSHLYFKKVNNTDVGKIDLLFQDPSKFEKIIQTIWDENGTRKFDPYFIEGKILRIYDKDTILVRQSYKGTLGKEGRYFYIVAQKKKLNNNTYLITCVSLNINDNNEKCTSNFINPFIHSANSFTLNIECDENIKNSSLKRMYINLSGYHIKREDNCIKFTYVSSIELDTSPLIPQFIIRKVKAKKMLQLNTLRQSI
Nature of the assay: […]-PC transfer from donor to acceptor vesicles. It is filed as biochemical. The conditions noted are these: pH 7.4, 37 °C, 30 min, 25 μg/ml protein, BSA 1 mg/ml; labelled compound (14C).

On to `CCCCCCCCCCCCCCCC(=O)OC[C@H](COP(=O)([O-])OCC[N+](C)(C)C)OC(=O)CCCCCCCCCCCCCCC` [L-α-DiPalmitoyl-Phosphatidylcholine], for which the PC transfer activity entry is given as “P. falciparum Fam-A reproducibly showed a lower, but detectable, level of PC transfer activity”.
